Series [1] can be described thus: AUC in C57BL/6J mouse liver at 1 mg/kg, po after 0.5 to 6 hrs by LC-MS/MS method. The arrangement: time lower 0.5 hr, dose 1 mg/kg, time upper 6 hr, route oral. The class given is ADME, organism-based. The following applies: in vivo.
Series [2] relates to Rattus norvegicus. The series is described as follows: Reduction in serum total bilirubin level in Sprague-Dawley rat model of alpha-naphthylisothiocyanate-induced cholestatic liver disease at 6 mg/kg administered intragastrically once daily for 1 week. It is filed as functional, organism-based.
A short description of series [3]: Cmax in C57BL/6J mouse at 10 mg/kg, po after 0.25 to 24 hrs by LC-MS/MS method. Set-up: dose 10 mg/kg, route oral. The class given is ADME, organism-based. The following applies: in vivo.
The test system of series [4] is Rattus norvegicus. The series is described as follows: Reduction in serum indirect bilirubin level in Sprague-Dawley rat model of alpha-naphthylisothiocyanate-induced cholestatic liver disease at 6 mg/kg administered intragastrically once daily for 1 week. The class given is functional, organism-based.
Series [5] relates to Mus musculus. The series is described as follows: AUC (0 to infinity) in C57BL/6J mouse at 1 mg/kg, iv after 0.25 to 24 hrs by LC-MS/MS method. It is filed as ADME, organism-based. Set-up: dose 1 mg/kg, time infinity, route intravenous. The following applies: in vivo.
Series [6] relates to Rattus norvegicus. The series can be described thus: Reduction in serum direct bilirubin level in Sprague-Dawley rat model of alpha-naphthylisothiocyanate-induced cholestatic liver disease at 6 mg/kg administered intragastrically once daily for 1 week. The class given is functional, organism-based.
The subject of series [7] is Mus musculus. The series is described as follows: (§1) AUC (0 to infinity) in C57BL/6J mouse at 10 mg/kg, po after 0.25 to 24 hrs by LC-MS/MS method. The arrangement: dose 10 mg/kg, time infinity, route oral. The following applies: in vivo. The class given is ADME, organism-based.
The nature of series [8]: Stability in mouse plasma assessed as compound remaining level at 100 uM incubated for 2 hrs by LC-MS/MS method. The class given is ADME, cell-free.
Series [9] can be described thus: Stability in rat plasma assessed as compound remaining level at 100 uM incubated for 2 hrs by LC-MS/MS method. The class given is ADME, cell-free. The following applies: for Stability: 2 h, 100 µM; for remaining at 2 h, 100 µM: read-out: Stability.
Series [10] is described as follows: as §1. The class given is ADME, organism-based. The arrangement: dose 10 mg/kg, time infinity, route oral. The following applies: C57BL/6J, in vivo.
Series [11] addresses T1, Caspase-3 (Homo sapiens, UniProt P42574).
T1 sequence (P42574 whole entry): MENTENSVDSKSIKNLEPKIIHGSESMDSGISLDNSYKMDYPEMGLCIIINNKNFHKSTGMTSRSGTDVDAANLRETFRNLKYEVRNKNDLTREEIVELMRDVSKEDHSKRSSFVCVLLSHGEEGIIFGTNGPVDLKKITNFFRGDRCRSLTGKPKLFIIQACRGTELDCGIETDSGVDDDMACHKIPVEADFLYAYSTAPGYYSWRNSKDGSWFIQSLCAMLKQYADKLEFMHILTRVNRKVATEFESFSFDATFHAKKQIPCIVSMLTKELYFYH
The series is described as follows: Inhibition of Anti-Fas antibody-induced caspase-3 activity in human Jurkat E6-1 cells using Ac-DEVD-AMC substrate by fluorescence based assay. It is filed as cell-based.

The source made the active and inactive calls. The calls are words filed in the database; no cut-off is given here.

In series [1], `O=C(O)C[C@H](NC(=O)C1CCN(C(=O)C2CC(F)(F)C2)CC1)C(=O)COc1c(F)c(F)cc(F)c1F` came in with an AUC of 334 nmol·h/kg.

The molecule `O=C(O)C[C@H](NC(=O)C1CCN(C(=O)c2cccs2)CC1)C(=O)COc1c(F)c(F)cc(F)c1F` came in with an AUC in series [1] of 804 nmol·h/kg.

A word on the Cmax: it is the peak of the concentration-time curve. Regarding `O=C(O)C[C@H](NC(=O)C1CCN(C(=O)C2CCCC2)CC1)C(=O)COc1c(F)c(F)cc(F)c1F`, the result in [2], in [4] and in series [6] was Active. The concentration in series [3] peaked (Cmax) at 405 nM. Besides, the AUC in series [5] amounted to 0.852 µM·h; in series [1], 2219 nmol·h/kg; in [7], 1.71 µM·h.

Take `O=C(O)C[C@H](NC(=O)C1CCN(C(=O)OC2CCCC2)CC1)C(=O)COc1c(F)c(F)cc(F)c1F`: the Stability result in series [8] and in series [9] was “Stable” each time.

The term AUC(0-inf) denotes the area under the concentration-time curve extrapolated to infinity. Turning to `CC(C)(C)c1ccccc1NC(=O)C(=O)N1CCC(C(=O)N[C@@H](CC(=O)O)C(=O)COc2c(F)c(F)cc(F)c2F)CC1`, the remaining at 2 h, 100 µM in series [9] came to 93%. Further, the peak level in [3] (Cmax) was 1640 nM. Also, the AUC(0-inf) in series [10] stood at 3.66 µM·h.

As a reminder, the IC50 is the concentration at which inhibition is half-maximal. Regarding `C[C@H](NC(=O)C(=O)Nc1ccccc1C(C)(C)C)C(=O)N[C@@H](CC(=O)O)C(=O)COc1c(F)c(F)cc(F)c1F` [EMRICASAN], in series [3], the Cmax worked out at 227 nM. For the same molecule, the IC50 in series [11] turned out to be 6 nM. Moreover, the values for the AUC in series [5], in series [1] and in [7] were 0.446 µM·h, 2350 nmol·h/kg and 0.197 µM·h, respectively.

Turning to `CC(C)(C)c1ccccc1NC(=O)C(=O)N1CCC[C@@H](C(=O)N[C@@H](CC(=O)O)C(=O)COc2c(F)c(F)cc(F)c2F)C1`, the remaining at 2 h, 100 µM in [9] turned out to be 67%.

With `O=C(O)C[C@H](NC(=O)C1CCN(C(=O)Oc2ccccc2Cl)CC1)C(=O)COc1c(F)c(F)cc(F)c1F`, the Stability entry in series [8] and in series [9] was “Unstable” each time.

Values taken from ChEMBL document CHEMBL4219217, “Structure-activity relationship study of a series of caspase inhibitors containing γ-amino acid moiety for treatment of cholestatic liver disease” (Bioorg Med Chem Lett, 2018).
